Experimental data reported in ChEMBL document CHEMBL1144668, “Mono- and dialkyl isoprenoid bisphosphonates as geranylgeranyl diphosphate synthase inhibitors” (Bioorg Med Chem, 2008).
The source made the active and inactive calls. The rule behind the calls is not given here.

System: K562
Assay: Inhibition of Ras farnesylation in human K562 cells after 24 hrs by Western blot
Type: functional, cell-based

CC(C)=CCCC(C)=CCC(CC=C(C)CCC=C(C)C)(P(=O)(O)O)P(=O)(O)O
Activity: inactive

CC(C)=CCC/C(C)=C\CC(C/C=C(\C)CCC=C(C)C)(P(=O)(O)O)P(=O)(O)O
Activity: inactive
